Laboratory results published in patent US20150258197A1, “EUTECTIC ISOMETHEPTENE MUCATE” (TONIX PHARMA HOLDINGS LIMITED, priority 2014, published 2015).

What was measured:
[1] = cited from earlier work
[2] = system: imidazoline-1 (I1) receptor; conditions: cited from earlier work
mice [3] = assay: Tail-flick Test; type: in vivo; conditions: mouse, thermal light source, three doses (10, 30, 100) p.o. 15 minutes before the test
Source text: (§1) Common mouse models for pain include the Formalin Test (Wheeler-Aceto, et al., Psychopharmacology, 104, 35-44, 1991), the Hot Plate Test (Eddy and Leimbach, J. Pharmacol. Exp. Ther., 107, 385-393, 1953), and the Tail-flick Test (D'Amour and Smith, J. Pharmacol. Exp. Ther., 1, 74-79, 1941). These methods detect analgesic activity of compositions of interest. In the Formalin Test, mice are given an intraplantar injection of 5% formalin into one posterior hindpaw to induce paw licking. Test compositions are given to the mice before treatment with formalin and the mice are evaluated and compared to a control group. In the Hot Plate Test, mice are placed onto a hot metal plate maintained at 54° C. and the latency to the first foot-lick is measured. As with the Formalin test, compositions of interest are given to the mice before the test and the mice are evaluated and compared to a control group. In the Tail-flick Test, a mouse's tail is heated by means of a thermal light source, and the latency before the animal withdraws its tail is measured. Test compositions are administered before the test, and compared with a vehicle control group. The analgesic activity of the compositions described herein can be identified using the mouse formalin, hot plate, and tail-flick tests.
A method for detecting analgesic activity followed that described by D'Amour and Smith (J. Pharmacol. Exp. Ther., 1, 74-79, 1941). The mouse's tail was heated by means of a thermal light source (20 volts). The latency before the animal withdraws its tail was measured (maximum: 15 seconds).
Ten mice were studied per group. The test was performed partially blind.
The test substances selected from (R)-isometheptene mucate, and (S)-isometheptene mucate were evaluated at three doses ([…]), administered p.o. 15 minutes before the test, and compared with a vehicle control group. […]
Data with the test substance were analyzed by comparing treated groups with vehicle control using ANOVA followed by post-hoc Dunnett's tests. Data with the reference substance were analyzed using unpaired Student's t tests.

mice [4] = assay: Formalin Test, late phase (licking score); type: in vivo; conditions: mouse, 5% formalin intraplantar, three doses p.o. 15 minutes before the test, 15-50 min after formalin
Source text: as §1, with “Test compositions are administered before the test, and compared with a vehicle control group. The analgesic activity of the compositions described herein can be identified using the mouse formalin, hot plate, and tail-flick tests.” left out
Mice were given an intraplantar injection of 5% formalin (25 μL) into one posterior hindpaw. […] Mice were briefly observed at one minute intervals between 15 and 50 minutes after the injection of formalin and the number of occasions that the mice were observed licking the injected paw was recorded. […]

mice [5] = assay: Hot Plate Test; type: in vivo; conditions: mouse, hot plate 54° C., 10, 30 and 100 mg/kg p.o. 15 minutes before the test
Source text: as §1, with “Test compositions are administered before the test, and compared with a vehicle control group. The analgesic activity of the compositions described herein can be identified using the mouse formalin, hot plate, and tail-flick tests.” left out
Mice were placed onto a hot metal plate maintained at 54° C. surrounded by a Plexiglas cylinder (height: 13 cm; diameter: 19 cm). The latency to the first foot-lick was measured (maximum: 30 seconds). […]
Data with the test substance were analyzed by comparing treated groups with vehicle control using ANOVA followed by post-hoc Dunnett's tests. […]

[6] = compared with (S)-isometheptene

CNC(C)CCC=C(C)C (racemic) [Racemic isometheptene, reference compound]
Heart rate and diastolic blood pressure ([1]; in vivo): increase

CN[C@H](C)CCC=C(C)C [(R)-isometheptene]
Potential adverse effects to the cardiovascular system relative to (S)-isometheptene [1, 6]: lower potential adverse effects
Binding affinity for the imidazoline-1 (I1) receptor [2]: significant binding affinity
I1 affinity relative to (S)-isometheptene [2, 6]: higher affinity

CN[C@@H](C)CCC=C(C)C [(S)-isometheptene mucate]
Tail flick latency compared to vehicle (mice [3]): longer tail flick latency times
Licking score compared to vehicle (mice [4]): reduction in licking score
Foot-licking latency compared to vehicle (mice [5]): longer foot-licking latency times
